Measurements published in patent publication US7022699B2, “Cyclohexenyl phenyl diazepines vasopressin and oxytocin receptor modulators” (Wyeth, priority 2001, dated 2006).

Experiments:
[1] = biological target: T1, human vasopressin V1a receptor subtype (Homo sapiens, UniProt P37288); test: Vasopressin binding in CHO cell membranes expressing human vasopressin V1a subtype receptors ([3H]Manning ligand); settings: for IC50: values in parentheses; for inhibition at 0.1 µM: 100 nM, values without parentheses
T1 construct: host or cells: CHO cells, stably transfected (pZeoSV vector for the Thibonnier cells); membranes
T1 sequence (P37288 whole entry): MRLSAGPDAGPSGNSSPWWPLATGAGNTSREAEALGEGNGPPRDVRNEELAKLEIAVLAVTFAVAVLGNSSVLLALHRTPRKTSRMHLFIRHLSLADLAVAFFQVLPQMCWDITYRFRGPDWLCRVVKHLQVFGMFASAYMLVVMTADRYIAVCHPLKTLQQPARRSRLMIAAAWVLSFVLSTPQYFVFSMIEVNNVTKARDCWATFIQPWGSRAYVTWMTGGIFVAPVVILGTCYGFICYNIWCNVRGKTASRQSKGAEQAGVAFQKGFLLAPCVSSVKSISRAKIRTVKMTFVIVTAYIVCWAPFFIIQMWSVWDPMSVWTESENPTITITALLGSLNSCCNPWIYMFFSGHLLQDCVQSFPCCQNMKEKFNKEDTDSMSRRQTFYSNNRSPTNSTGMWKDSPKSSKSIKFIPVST
Text: Vasopressin Binding in Chinese Hamster Ovary Cell Membranes Expressing Human Vasopressin V1a Subtype Receptors
Chinese hamster ovary cells (CHO cells) stably transfected with the human vasopressin V1a subtype receptors were either obtained from Biosignal Inc., 1744 rue Williams, Montreal, Quebec, Canada or obtained from M. Thibonnier, Case Western Reserve University School of Medicine, Cleveland, Ohio. A. Passaging and Amplification of Cells: CHO cells transfected with the human vasopressin V1a subtype receptors obtained from M. Thibonnier (pZeoSV vector) are allowed to grow to confluency (approx. >90%) in T-150 flasks under sterile conditions, in a cell culture medium of F-12 Nutrient Mixture (HAM) with L-glutamine (Gibco Cat. #11765-054) containing 15 mM HEPES (Gibco Cat. #15630-080), 1% antibiotic/antimycotic (add 5 mL 100×, Gibco Cat. #15240-062 per 500 mL F-12), 250 μg/mL Zeocin (add 1.25 mL of 100 mg/mL Invitrogen R-250-01 per 500 mL F-12) and 10% Fetal Bovine Serum (Qualified, heat inactivated, Gibco Cat. #16140-063). The medium is removed by aspiration and the cells are washed with 10 mL of Hank's Balanced Salt solution (Gibco Cat. #14175-095). The salt solution is removed by aspiration and the cells are trypsinized with 5 mL of trypsin-EDTA (0.05% trypsin, 0.53 mM EDTA-4Na, Gibco Cat. #25300-070) for 1 min. The trypsin is removed by aspiration and the cells dislodged by tapping. Cell Culture medium (eg, 30 mL for 1:30 split) is immediately added and mixed well to inactivate trypsin. 1 mL of detached cells is added to new culture flasks containing fresh cell culture medium (eg, into 25 mL per T-150 flask), and mixed gently. The cells are incubated at 37° C. in 5% CO2. The medium is changed at 3 to 4 days interval (or as appropriate). The cells grow to confluency (approx. >75%–95%) within 7–8 days. All steps are done under sterile conditions. B. Membrane Preparation: The cells are washed twice gently with Hank's Balanced Salt solution (e.g.,. use 10 mL per T-150 flask). The excess is removed and the cells are bathed for 15–30 min. in an enzyme-free Cell Dissociation Buffer (e.g. use 8 mL Hank's Based, Gibco Cat. #13150-016 per T-150 flask) until the cells are loosened. The contents are transferred to centrifuge tubes (50 mL size) kept in ice bath. All subsequent steps are done at 4° C. The tubes are centrifuged at 300×g for 15 min (1380 rpm on SORVAL, Model RT6000D, using rotor for 50 mL tubes). The supernatant is discarded and the cells suspended in homogeneizing buffer (10 mM Tris-HCl containing 0.25 M sucrose and 1 mM EDTA, pH 7.4) ensuring that the volume of the buffer is about ten times the volume of the cell pellet. The cells are pooled into a centrifuge tube (50 mL) and homogenized with Polytron at setting 6 for 10 sec. The homogenate is transferred into a Potter-Elvjehm homogenizer and homogenized with 3 strokes. The homogenate is centrifuged at 1500×g for 10 min at 4° C. (3100 rpm using SORVAL, model RT6000D, using rotor for 50 mL tubes). The pellet is discarded. The supernatant is centrifuged at 100,000×g for 60 min. at 4° C. (Beckman L8-80M ultracentrifuge; spin at 37,500 rpm with rotor type 70 Ti for 50 mL tubes; 38,000 rpm with type 80Ti for 15 mL tubes; or 35,800 rpm with rotor type 45Ti). The supernantant is discarded and the pellet suspended in 3 to 4 mL of Tris buffer (50 mM TRIS-HCl, pH 7.4). The protein content is estimated by the Bradford or Lowry method. The volume of the membrane suspension is adjusted with the membrane buffer (50 mM Tris-HCl containing 0.1% BSA and 0.1 mM PMSF) to give 3.0 mg/mL (or as appropriate) of protein. The membranes are aliquoted and stored at −70° C. C. […]

| IC50 [1] [nM] | melting point [°C] | inhibition at 0.1 µM [1] [%] | SMILES |
| --- | --- | --- | --- |
| 77.8 | 108 to 109 |  | CC1CCCC=C1c1ccc(C(=O)N2Cc3cccn3Cc3ccccc32)cc1 (stereo not shown) [Example 16, (10,11-Dihydro-5H-pyrrolo[2,1-c][1,4]benzodiazepin-10-yl)-[4-(6-methyl-cyclohex-1-en-1-yl)-phenyl]-methanone] |
|  | 131 | 18 | Cc1cc(C(=O)N2Cc3cccn3Cc3ccccc32)ccc1C1=CCCCC1(C)C [Example 30, (10,11-Dihydro-5H-pyrrolo[2,1-c][1,4]benzodiazepin-10-yl)-[4-(6,6-dimethyl-cyclohex-1-en-1-yl)-3-methyl-phenyl]-methanone] |
| 432 | 108 |  | Cc1cc(C(=O)N2Cc3cccn3Cc3ccccc32)ccc1C1=CCCc2ccccc21 [Example 3, (10,11-Dihydro-5H-pyrrolo[2,1-c][1,4]benzodiazepin-10-yl)-[4-(3,4-dihydro-naphthalen-1-yl)-3-methyl-phenyl]-methanone] |
|  | 174 to 176 | 6 | O=C(c1ccc(C2=CCCc3ccccc32)cc1Cl)N1Cc2cccn2Cc2ccccc21 [Example 11, (10,11-Dihydro-5H-pyrrolo[2,1-c][1,4]benzodiazepin-10-yl)-[2-chloro-4-(3,4-dihydro-naphthalen-1-yl)-phenyl]-methanone] |
|  | 127 to 129 | -5 | Cc1cc(C(=O)N2Cc3cccn3Cc3ccccc32)ccc1C1=CCCCC1C(C)(C)C (stereo not shown) [Example 34, (10,11-Dihydro-5H-pyrrolo[2,1-c][1,4]benzodiazepin-10-yl)-[4-(6-tert-butyl-cyclohex-1-en-1-yl)-3-methyl-phenyl]-methanone] |
